Measured values from patent US20110301370A1, “METHOD FOR PREPARING OREGANIC ACID” (CONSEJO SUPERIOR DE INVESTIGACIONES CIENTÍFICAS, priority 2008, published 2011).

- melting point: 63 to 65 °C
Structure (SMILES): O=C(O)C/C(C(=O)O)=C(\CCCCCCCCCCCCCCCCOS(=O)(=O)O)C(=O)O [1-Z, (Z)-3,4-dicarboxy-20-sulfooxy-3-eicosenoic acid]
